In patent publication US20150246902A1, “SUBSTITUED BENZOFURAN COMPOUNDS AND METHODS OF USE THEREOF FOR THE TREATMENT OF VIRAL DISEASES” (priority 2011, published 2015):

Columns and labels:
[1] = system: HCV replicon genotype 1b; test: microbe, parasite or virus in culture; assay type: cell-based; details: Hepatitis C virus, 96 h, HCV genotype 1b replicon cells, 96 hours incubation, NS3/4A ELISA readout
[2] = system: HCV replicon genotype 1a; test: microbe, parasite or virus in culture; assay type: cell-based; details: Hepatitis C virus, 96 h, HCV genotype 1a replicon cells, 96 hours incubation, NS3/4A ELISA readout

SMILES	IC50 [1] [µM]	IC50 [2] [µM]
CNC(=O)c1c(-c2ccc(F)cc2)oc2cc(N(C)S(C)(=O)=O)c(-c3ccc4ccn(-c5ccncc5)c4c3)cc12 [Compound 51]	0.0078	0.0346
CNC(=O)c1c(-c2ccc(F)cc2)oc2cc(N(C)S(C)(=O)=O)c(-c3ccc4ccn(-c5cccnc5)c4c3)cc12 [Compound 52]	0.0071	0.0429
CNC(=O)c1c(-c2ccc(F)cc2)oc2cc(N(C)S(C)(=O)=O)c(-c3ccc4c(ccn4-c4ccccc4)c3)cc12 [Compound 53]	0.0125	0.082
CNC(=O)c1c(-c2ccc(F)cc2)oc2cc(N(C)S(C)(=O)=O)c(-c3ccc4c(ccn4-c4ccc(F)cc4)c3)cc12 [Compound 54]	0.0141	0.109
CNC(=O)c1c(-c2ccc(F)cc2)oc2cc(N(C)S(C)(=O)=O)c(-c3ccc4c(ccn4-c4cccc(F)c4)c3)cc12 [Compound 55]	0.0238	0.152
CNC(=O)c1c(-c2ccc(F)cc2)oc2cc(N(C)S(C)(=O)=O)c(-c3ccc4c(ccn4-c4ccc(C(F)(F)F)cc4)c3)cc12 [Compound 56]	0.0308	0.224
CNC(=O)c1c(-c2ccc(F)cc2)oc2cc(N(C)S(C)(=O)=O)c(-c3ccc4c(ccn4-c4cccnc4)c3)cc12 [Compound 57]	0.003	0.0139
CNC(=O)c1c(-c2ccc(F)cc2)oc2cc(N(C)S(C)(=O)=O)c(-c3ccc4c(ccn4-c4ccncc4)c3)cc12 [Compound 58]	0.0026	0.0072
CNC(=O)c1c(-c2ccc(F)cc2)oc2cc(N(C)S(C)(=O)=O)c(-c3ccc4ccn(-c5ccc(F)cc5)c4c3)cc12 [Compound 59]	0.0052	0.0153
CNC(=O)c1c(-c2ccc(F)cc2)oc2cc(N(C)S(C)(=O)=O)c(-c3ccc4ccn(-c5cccc(F)c5)c4c3)cc12 [Compound 60]	0.0044	0.0454
CNC(=O)c1c(-c2ccc(F)cc2)oc2cc(N(C)S(C)(=O)=O)c(-c3ccc4ccn(-c5ccc(C(F)(F)F)cc5)c4c3)cc12 [Compound 61]	0.0101	0.0342
CNC(=O)c1c(-c2ccc(F)cc2)oc2cc(N(C)S(C)(=O)=O)c(-c3ccc4[nH]ccc4c3)cc12 [Compound 62]	0.0229	0.183
CNC(=O)c1c(-c2ccc(F)cc2)oc2cc(N(C)S(C)(=O)=O)c(-c3ccc4ccn(-c5ccccc5)c4c3)cc12 [Compound 63]	0.0072	0.0235
CNC(=O)c1c(-c2ccc(F)cc2)oc2cc(N(C)S(C)(=O)=O)c(-c3ccc4ccn(-c5ccc(F)cc5)c4n3)cc12 [Compound 64]	0.0761	0.409
CNC(=O)c1c(-c2ccc(F)cc2)oc2cc(N(C)S(C)(=O)=O)c(-c3ccc4ccn(-c5cc(F)cc(F)c5)c4n3)cc12 [Compound 65]	0.115	1.53
CNC(=O)c1c(-c2ccc(F)cc2)oc2cc(N(C)S(C)(=O)=O)c(-c3ccc4ccn(-c5ccc(F)cc5F)c4n3)cc12 [Compound 66]	0.225	2.27

SMILES	IC50 [1] [µM]	IC50 [2] [µM]
CNC(=O)c1c(-c2ccc(F)cc2)oc2cc(N(C)S(C)(=O)=O)c(-c3ccc4ccn(Cc5ccc(C(F)(F)F)cc5)c4c3)cc12 [Compound 67, 2-(4-fluorophenyl)-N-methyl-6-(N-methylmethylsulfonamido)-5-(1-(4-(trifluoromethyl)benzyl)-1H-indol-6-yl)benzofuran-3-carboxamide]	0.0498	0.132
CNC(=O)c1c(-c2ccc(F)cc2)oc2cc(N(C)S(C)(=O)=O)c(-c3ccc4ccn(Cc5ccc(F)cc5)c4c3)cc12 [Compound 68]	0.0186	0.0542
CNC(=O)c1c(-c2ccc(F)cc2)oc2cc(N(C)S(C)(=O)=O)c(-c3ccc4ccn(CCO)c4c3)cc12 [Compound 69]	0.0174	0.147
CNC(=O)c1c(-c2ccc(F)cc2)oc2cc(N(C)S(C)(=O)=O)c(-c3ccc4[nH]cc(-c5ccccc5)c4c3)cc12 [Compound 70, 2-(4-fluorophenyl)-N-methyl-6-(N-methylmethylsulfonamido)-5-(3-phenyl-1H-indol-5-yl)benzofuran-3-carboxamide]	0.0113	0.0178
CNC(=O)c1c(-c2ccc(F)cc2)oc2cc(N(C)S(C)(=O)=O)c(-c3ccc4[nH]cc(-c5ccncc5)c4c3)cc12 [Compound 71]	0.0045	0.0215
CNC(=O)c1c(-c2ccc(F)cc2)oc2cc(N(C)S(C)(=O)=O)c(-c3ccc4[nH]nc(-c5ccc(F)cc5)c4c3)cc12 [Compound 73, 2-(4-fluorophenyl)-5-(3-(4-fluorophenyl)-1H-indazol-5-yl)-N-methyl-6-(N-methylmethylsulfonamido)benzofuran-3-carboxamide]	0.0038	0.0039
CNC(=O)c1c(-c2ccc(F)cc2)oc2cc(N(C)S(C)(=O)=O)c(-c3ccc4[nH]nc(-c5ccncc5)c4c3)cc12 [Compound 74]	0.0054	0.0206
CNC(=O)c1c(-c2ccc(F)cc2)oc2cc(N(C)S(C)(=O)=O)c(-c3ccc4[nH]nc(-c5ccc(C(F)(F)F)cc5)c4c3)cc12 [Compound 75]	0.0073	0.008
CNC(=O)c1c(-c2ccc(F)cc2)oc2cc(N(C)S(C)(=O)=O)c(-c3ccc4[nH]nc(-c5ccc(Cl)cc5)c4c3)cc12 [Compound 76]	0.0058	0.0068
CNC(=O)c1c(-c2ccc(F)cc2)oc2cc(N3CCCC3=O)c(-c3ccc4ncn(-c5ccccc5)c4c3)cc12 [Compound 77, 2-(4-fluorophenyl)-N-methyl-6-(2-oxopyrrolidin-1-yl)-5-(1-phenyl-1H-benzo[d]imidazol-6-yl)benzofuran-3-carboxamide]	0.0326	0.235
CNC(=O)c1c(-c2ccc(F)cc2)oc2cc(N(C)S(C)(=O)=O)c(-c3cc(OC)c4nc(N)n(-c5cc(F)cc(F)c5)c4c3)cc12 [Compound 78, 5-(2-amino-1-(3,5-difluorophenyl)-4-methoxy-1H-benzo[d]imidazol-6-yl)-2-(4-fluorophenyl)-N-methyl-6-(N-methylmethylsulfonamido)benzofuran-3-carboxamide]	0.0053	0.019
CNC(=O)c1c(-c2ccc(F)cc2)oc2cc(N(C)S(C)(=O)=O)c(-c3cc(F)c4nc(N)n(-c5cc(F)cc(F)c5)c4c3)cc12 [Compound 79]	0.0031	0.0314
CNC(=O)c1c(-c2ccc(F)cc2)oc2cc(N(C)S(C)(=O)=O)c(-c3cc(OC)c4[nH]c(=O)n(-c5cc(F)cc(F)c5)c4c3)cc12 [Compound 80, 5-(3-(3,5-difluorophenyl)-7-methoxy-2-oxo-2,3-dihydro-1H-benzo[d]imidazol-5-yl)-2-(4-fluorophenyl)-N-methyl-6-(N-methylmethylsulfonamido)benzofuran-3-carboxamide]	0.0066	0.009
CNC(=O)c1c(-c2ccc(F)cc2)oc2cc(N(C)S(C)(=O)=O)c(-c3cc(F)c4[nH]c(=O)n(-c5cc(F)cc(F)c5)c4c3)cc12 [Compound 81]	0.0052	0.0303
CNC(=O)c1c(-c2ccc(F)cc2)oc2cc(N(C)S(C)(=O)=O)c(-c3ccc4[nH]c(=O)n(-c5ccc(F)cc5)c4c3)cc12 [Compound 82]	0.0049	0.023
